Data: US10465227B2, “Microbial testing devices, methods of making microbial testing devices and methods of identifying novel antimicrobial drug candidates” (BOARD OF REGENTS, THE UNIVERSITY OF TEXAS SYSTEM, priority 2010, dated 2019)

System: C. albicans biofilms
Assay: Susceptibility testing of preformed C. albicans biofilms in CaBChip (FUN 1 fluorescence)
Assay type: cell-based, Candida albicans strain SC5314
Conditions: 24 h preformed biofilms on CaBChip, 24 h drug exposure; for SMIC50 / SMIC80: FUN 1 staining
Protocol: A four-factor, two-level factorial design was performed using MINITAB (Minitab Solutions Inc., State College, Pa.) and DESIGN EXPERT (Stat-Ease Inc., Minneapolis, Minn.) software to obtain optimal conditions of media concentration, seeding density, collagen concentration and PSMA coating concentration for wash-resistant biofilm growth on the CaBChip. The response (output) metrics were true biofilm yield and robust attachment, measured using microarray scanner and light microscope. For preparation of inocula for printing and biofilm formation in the CaBChip, cells harvested from overnight YPD cultures were washed twice in sterile phosphate buffered saline (PBS; 10 mM phosphate buffer, 2.7 mM potassium chloride, 137 mM sodium chloride (pH 7.4) (Sigma) by centrifugation at 3000 g. The cells were then resuspended in Reconstruction buffer (0.2N NaOH solution with 2.2% (wt/vol) Sodium Bicarbonate and 4.8% (wt/vol) HEPES). One hundred fold dilutions of the suspended cells were prepared and counted using a hemocytometer on a bright field microscope. Following count, a suspension of cells was prepared in reconstruction buffer at a cell density of 5×10^7 cells/mL, which was diluted ten times by addition of 10×RPMI-1640 supplemented with L-glutamine and buffered with morpholinepropanesulfonic acid (Angus Buffers and Chemicals, Niagara Falls, N.Y.) containing collagen (1.8 mg/ml) (Type 1 from rat tail, BD Biosciences, Bedford, Mass.), to give a final concentration of cells of […]. The suspension containing yeast cells, collagen and media was printed (50 nL per spot) on the functionalized PSMA-coated glass slides using a microarray spotter (Omnigrid Micro, Digilab Inc., Holliston, Mass.). Printing was carried out by non-contact deposition using conically tapered 190μ orifice ceramic tips (Digilab). The resulting spots were approximately 700μ in diameter, spaced 1.2 mm apart; spots were printed in an array of 48 rows and 16 columns. In a standard print nm, the tips were primed, rinsed in running water and vacuum dried twice after each loading and printing step. The cell suspension was kept on ice to prevent the gelation of collagen before printing and agitated gently just prior to placement on the printing robot to ensure a uniformly mixed cell suspension. A relative humidity of 97% was maintained during printing to prevent the drying of the biofilm spots. All microarray operations such as aspiration, dispensing, priming, printing and spatial distribution of array were controlled by AxSys program (Digilab). All surfaces, including the source plate station, wash and vacuum station, vacuum slide platter and printing chamber were sterilized by wiping with 70% isopropanol. In our experience, these procedures ensure that there is no detectable contamination of wells in the plates or of spots on the microarray. After printing, the slides were placed inside humidifier chambers (Arraylt Corporation, Sunnyvale, Calif.), which were placed inside a 37 C incubator over different periods of time to allow for biofilm formation.
FUN 1 [2-chloro-4-(2,3-dihydro-3-methyl-(benzo-1,3-thiazol-2-yl)-methylidene)-1-phenylquinolinium iodide] (Invitrogen Corp., Carlsbad, Calif.) was used to stain and determine viability (levels of metabolic activity) of C. albicans cells within the biofilms formed in the chips. This membrane-permeable fluorescent dye is internalized and processed by metabolically active fungal cells, and has excitation and emission spectra that are compatible with the sets of lasers and filters installed in most microarray scanners. Briefly, the CaBChip was stained with 0.5 tM FUN 1, by simply dunking the entire CaBChip in a staining jar, and incubated in the dark at 37° C. for 30 min. Following incubation, the chip was washed three times by dunking in PBS in order to remove excess stain. The slides were then air-dried and scanned in a microarray scanner (Genepix Personal4100A, Axon Instruments, Union City, Calif.). […]

calculated IC50 (FUN 1 fluorescence, Hill equation fit) [µg/mL] | SMILES | susceptibility of biofilms formed on CaBChip (in words) | SMIC50 | SMIC80 | IC50 (Candida albicans, FUN 1 fluorescence, Hill equation fit, read-out: calculated IC50) [µg/mL]
0.27 ± 0.04 | C[C@@H]1[C@H](O)[C@@H](C)/C=C/C=C/C=C/C=C/C=C/C=C/C=C/[C@H](O[C@@H]2O[C@H](C)[C@@H](O)[C@H](N)[C@@H]2O)C[C@@H]2O[C@](O)(C[C@@H](O)C[C@@H](O)[C@H](O)CC[C@@H](O)C[C@@H](O)CC(=O)O[C@H]1C)C[C@H](O)[C@H]2C(=O)O [amphotericin B] | effective against biofilms formed on CaBChip, but only at relatively high concentrations | 0.5 µg/mL | 1 µg/mL | –
– | OC(Cn1cncn1)(Cn1cncn1)c1ccc(F)cc1F [fluconazole] | intrinsically resistant to fluconazole | > 1,024 μg/ml | > 1,024 μg/ml | > 1020
